In patent US6767918B2, “N-(aryl/heteroarylacetyl) amino acid esters, pharmaceutical compositions comprising same, and methods for inhibiting β-amyloid peptide release and/or its synthesis by use of such compounds” (Athena Neurosciences, Inc., priority 1996, dated 2004) one finds melting point data, which are given here for 12 compounds.

A word on the melting point: it is the temperature, or range, at which the solid turns liquid. In turn, `CC(C)COC(=O)C(C)NC(=O)Cc1cccnc1` (racemic) [Example 7, N-[(3-pyridyl)acetyl]-D,L-alanine iso-butyl ester] displayed a melting point of 62 to 64 °C.
For the compound `CC(C)COC(=O)[C@H](C)NC(=O)CC1=CCCCC1` [Example 72, N-[(cyclohex-1-enyl)acetyl]-L-alanine iso-butyl ester], the melting point fell in the range of 49 to 51 °C.
The result for `CC(C)COC(=O)C(C)NC(=O)Cc1ccncc1` (racemic) [Example 12, N-[(4-pyridyl)acetyl]-D,L-alanine iso-butyl ester] reads 64 to 66 °C; that for `CC(C)COC(=O)[C@H](C)NC(=O)Cc1ccc(Cl)c(Cl)c1` [Example 5, N-[(3,4-dichlorophenyl)acetyl]-L-alanine iso-butyl ester], 81 to 83 °C; that for `CC(C)COC(=O)[C@H](C)NC(=O)CC1CCCC1` [Example 71, N-(cyclopentylacetyl)-L-alanine iso-butyl ester], 62 to 64 °C.
The result for `CC(C)COC(=O)[C@H](C)NC(=O)Cc1cccc2ccccc12` [Example 8, N-[(1-naphthyl)acetyl]-L-alanine iso-butyl ester] reads 69 to 73 °C; that for `CCOC(=O)[C@H](C)NC(=O)Cc1cc(F)cc(F)c1` [Example 64, N-[(3,5difluorophenyl)acetyl]alanine ethyl ester], 93 to 95 °C.
With `Cc1ccc(CC(=O)NC(C)C(=O)OCC(C)C)cc1` (racemic) [Example 6, N-[(4-methylphenyl)acetyl]-D,L-alanine iso-butyl ester] the figure was 102 to 104 °C; with `CC(C)COC(=O)[C@H](C)NC(=O)Cc1ccc(Cl)cc1` [Example 4, N-[(4-chlorophenyl)acetyl]-L-alanine iso-butyl ester], 111 to 113 °C; with `CC(C)COC(=O)[C@H](C)NC(=O)CC1CCCCC1` [Example 70, N-(cyclohexylacetyl)-L-alanine iso-butyl ester], 92 to 93 °C.
Turning to `CC(C)COC(=O)[C@H](C)NC(=O)Cc1ccc2ccccc2c1` [Example 9, N-[(2-naphthyl)acetyl]-L-alanine iso-butyl ester], the melting point is 128 to 129 °C.
The compound `CC(C)COC(=O)[C@H](C)NC(=O)Cc1ccccc1` [Example 13, N-(phenylacetyl)-L-alanine iso-butyl ester] showed a melting point of 45 to 47 °C.
